Assay results as given in PubChem BioAssay AID248 (DTP/NCI, 2004).
Inconclusive results and toxic doses are left out. Rule as the data show it: active = T/C of 150% or more; inactive = T/C below 125%.

Test system: L1210 leukemia ip in BDF1 mice, survival T/C
Assay: NCI In Vivo Anticancer Drug Screen. Data for tumor model L1210 Leukemia (intraperitoneal) in B6D2F1 (BDF1) mice
Settings: endpoint: mean survival time, higher = longer survival
In short: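 Tumor was transplanted into mice, which were then dosed with test compound or vehicle alone. Survival was recorded for each group, and the treated figure was expressed relative to the control figure.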

[1] = dose: 100.0 mg/kg/injection, schedule: Q01DX009 (ip), vehicle: saline with Tween-80
[2] = dose: 200.0 mg/kg/injection, schedule: Q01DX009 (ip), vehicle: saline with Tween-80
[3] = dose: 400.0 mg/kg/injection, schedule: Q01DX009 (ip), vehicle: saline with Tween-80
[4] = dose: 100.0 mg/kg/injection, schedule: Q04DX003 (ip), vehicle: saline with Tween-80
[5] = dose: 200.0 mg/kg/injection, schedule: Q04DX003 (ip), vehicle: saline with Tween-80
[6] = dose: 400.0 mg/kg/injection, schedule: Q04DX003 (ip), vehicle: saline with Tween-80

Measured: T/C

CCN(CC)P(=O)(N1CC1(C)C)N1CC1(C)C (configuration not stated)
inactive: dose: 88.0 mg/kg/injection, schedule: Q01DX001 (ip), vehicle: carboxymethylcellulose (CMC) 114 % of control | dose: 88.0 mg/kg/injection, schedule: Q01DX001 (ip), vehicle: saline 102 % of control | dose: 100.0 mg/kg/injection, schedule: Q01DX001 (ip), vehicle: saline 118 % of control | dose: 133.0 mg/kg/injection, schedule: Q01DX001 (ip), vehicle: carboxymethylcellulose (CMC) 118 % of control | dose: 133.0 mg/kg/injection, schedule: Q01DX001 (ip), vehicle: saline 107 % of control | dose: 200.0 mg/kg/injection, schedule: Q01DX001 (ip), vehicle: carboxymethylcellulose (CMC) 114 % of control | dose: 300.0 mg/kg/injection, schedule: Q01DX001 (ip), vehicle: saline 115 % of control

C/C(=N\N=C(N)N)c1ccccc1
inactive: dose: 15.0 mg/kg/injection, schedule: Q01DX Z (oral), vehicle: carboxymethylcellulose (CMC) 102 % of control | dose: 30.0 mg/kg/injection, schedule: Q01DX Z (oral), vehicle: carboxymethylcellulose (CMC) 97 % of control

CC(=O)C(C)[P+](c1ccccc1)(c1ccccc1)c1ccccc1 (configuration not stated)
inactive: dose: 6.25 mg/kg/injection, schedule: Q01DX009 (ip), vehicle: water 104 % of control | dose: 12.5 mg/kg/injection, schedule: Q01DX009 (ip), vehicle: water 95 % of control | dose: 12.5 mg/kg/injection, schedule: Q04DX003 (ip), vehicle: water 102 % of control | dose: 25.0 mg/kg/injection, schedule: Q01DX009 (ip), vehicle: water 102 % of control | dose: 25.0 mg/kg/injection, schedule: Q04DX003 (ip), vehicle: water 100 % of control | dose: 50.0 mg/kg/injection, schedule: Q01DX009 (ip), vehicle: water 96 % of control

CC1CCC(C(C)C)/C(=N/NC(=O)c2ccccc2)C1 (configuration not stated)
inactive: dose: 100.0 mg/kg/injection, schedule: Q01DX009 (ip), vehicle: Klucel (hydroxypropylcellulose) (HPC) 98 % of control | dose: 100.0 mg/kg/injection, schedule: Q04DX003 (ip), vehicle: Klucel (hydroxypropylcellulose) (HPC) 104 % of control | dose: 200.0 mg/kg/injection, schedule: Q01DX009 (ip), vehicle: Klucel (hydroxypropylcellulose) (HPC) 93 % of control | dose: 200.0 mg/kg/injection, schedule: Q04DX003 (ip), vehicle: Klucel (hydroxypropylcellulose) (HPC) 102 % of control | dose: 400.0 mg/kg/injection, schedule: Q01DX009 (ip), vehicle: Klucel (hydroxypropylcellulose) (HPC) 86 % of control | dose: 400.0 mg/kg/injection, schedule: Q04DX003 (ip), vehicle: Klucel (hydroxypropylcellulose) (HPC) 102 % of control

CCCCCCCCCCCCCCCCCCO
inactive: [1] 99 % of control | [2] 92 % of control | [3] 87 % of control

Cn1c(=O)n(C)c2nccnc21
inactive: dose: 12.5 mg/kg/injection, schedule: Q04DX002 (ip), vehicle: saline 108 % of control | dose: 25.0 mg/kg/injection, schedule: Q04DX002 (ip), vehicle: saline 105 % of control | dose: 50.0 mg/kg/injection, schedule: Q04DX002 (ip), vehicle: saline 94 % of control

CC1(C)CC(=O)C=C(N)C1
inactive: [4] 97 % of control | [5] 92 % of control | [6] 95 % of control

O=C(O)c1ccccc1-c1ccccc1C(=O)O
inactive: [4] 111 % of control | [5] 97 % of control | [6] 94 % of control

OCC1CCCN2CCCCC12 (configuration not stated)
inactive: dose: 100.0 mg/kg/injection, schedule: Q04DX003 (ip), vehicle: saline 98 % of control | dose: 200.0 mg/kg/injection, schedule: Q04DX003 (ip), vehicle: saline 90 % of control

Cc1ccc(S(=O)(=O)N(CCCc2c(C)nc(N)nc2Nc2ccccc2)c2ccccc2)cc1
inactive: dose: 25.0 mg/kg/injection, schedule: Q01DX001 (ip), vehicle: saline with Tween-80 108 % of control | dose: 50.0 mg/kg/injection, schedule: Q01DX001 (ip), vehicle: saline with Tween-80 92 % of control | dose: 100.0 mg/kg/injection, schedule: Q01DX001 (ip), vehicle: saline with Tween-80 93 % of control

COC(=O)c1c(C(=O)O)coc1C(=O)N1CCCC1
inactive: dose: 75.0 mg/kg/injection, schedule: Q04DX003 (ip), vehicle: Klucel (hydroxypropylcellulose) (HPC) 105 % of control | dose: 100.0 mg/kg/injection, schedule: Q01DX001 (ip), vehicle: Klucel (hydroxypropylcellulose) (HPC) 100 % of control | dose: 150.0 mg/kg/injection, schedule: Q04DX003 (ip), vehicle: Klucel (hydroxypropylcellulose) (HPC) 89 % of control | dose: 200.0 mg/kg/injection, schedule: Q01DX001 (ip), vehicle: Klucel (hydroxypropylcellulose) (HPC) 97 % of control | dose: 300.0 mg/kg/injection, schedule: Q04DX003 (ip), vehicle: Klucel (hydroxypropylcellulose) (HPC) 91 % of control | dose: 400.0 mg/kg/injection, schedule: Q01DX001 (ip), vehicle: Klucel (hydroxypropylcellulose) (HPC) 105 % of control

Nc1ncccc1[N+](=O)[O-]
inactive: [1] 109 % of control | [2] 98 % of control | [3] 112 % of control
